Results published in US20250034127A1, “AUTOPHAGY INDUCING COMPOUNDS AND USES THEREOF, IN PARTICULAR FOR DISEASES OF THE CNS” (Samsara Therapeutics Inc., priority 2021, published 2025).

These compounds were tested on Human osteosarcoma U2OS cells (assay: Assay to measure lysosome and autolysosome (acidic vesicle) formation in U2OS cells). Conditions: Homo sapiens, concentration of 0.8 μM, read-out: Activity (percentage increase in acidic vesicle formation over the DMSO-treated control).
Format: cell-based
Experimental: Lysosomes play a fundamental role in the autophagic pathway by fusing with autophagosomes and creating ‘autolysosomes’ in order to digest their contents. Stimulation of lysosome and autolysosome formation by a compound is indicative of a stimulation of autophagy. The ability of compounds to stimulate lysosome and autolysosome formation, and thus autophagy, in live cells was assessed via fluorescent microscopy using various fluorescent stains for labelling and tracking acidic organelles (including lysosomes and autolysosomes) such as: LysoView™ 650 (70059 and 70059-T, Biotium), Lyso View™633 (70058 and 70058-T, Biotium) and LysoTracker™ Deep Red (L12492, ThermoFisher Scientific). The cellular phenotype was quantitatively assessed for the induction of acidic vesicle formation and compared to a non-treated control, thus providing a measure of the ability of the compound under investigation to stimulate autophagy.
Representative procedure using LysoView™ 633 dye or LysoTracker™ Deep Red dye: Human osteosarcoma U2OS cells (40,000 cells/well) were seeded in a 24 well glass bottom plate (Sensoplate, Greiner Bio-One) and were incubated overnight in a humidified atmosphere at 37° C. and 5% CO2. Cells were grown in DMEM (Gibco) supplemented with 10% Fetal Bovine Serum (FBS) and 100 units/ml penicillin and 100 μg/ml streptomycin (Invitrogen). After the attachment period, cells were treated with different compounds of interest (at various concentrations in DMSO) or DMSO (non-treated control) in cell culture medium and were incubated for 24 hours. Compound-containing medium was removed and cells were incubated with pre-warmed cell culture medium containing 1× Lyso View™ 633 (70058 and 70058-T, Biotium) or 50 nM LysoTracker™ Deep Red (L12492, ThermoFisher Scientific) for 45 minutes at 37° C. Finally, cell nuclei were stained for 10 minutes using Hoechst 33342 (1 μg/mL) and then the medium was replaced with fresh medium. The 24 well plate was then fitted into a heated stage on the microscope and cells maintained at 37° C. Images were captured using appropriate filter set for Cy5 and DAPI detection with the EVOS M7000 Microscope (ThermoFisher Scientific). The cellular phenotype was visually assessed for the induction of acidic vesicle formation relative to the non-treated control; multiple images were acquired and analysed using ImageJ or Cell Profiler.

| SMILES | activation at 0.8 µM |
| --- | --- |
| CN(CCN(C)C1CCCCC1)C(=O)c1csc(-c2cnn(-c3ccccc3)c2)n1 [Compound 190, N-{2-[cyclohexyl(methyl)amino]ethyl}-N-methyl-2-(1-phenyl-1H-pyrazol-4-yl)-1,3-thiazole-4-carboxamide] | 10 to 30% |
| CC(=O)N1CCN(C(=O)c2csc(-c3cnn(-c4ccccc4)c3)n2)CC1 [Compound 198, 1-{4-[2-(1-phenyl-1H-pyrazol-4-yl)-1,3-thiazole-4-carbonyl]piperazin-1-yl}ethan-1-one] | 10 to 30% |
| O=C(NCCN1CCCCC1)c1csc(-c2cnn(-c3ccccc3)c2)n1 [Compound 202, 2-(1-phenyl-1H-pyrazol-4-yl)-N-[2-(piperidin-1-yl)ethyl]-1,3-thiazole-4-carboxamide] | 30 to 50% |
| O=C(NCCN1CCOCC1)c1csc(-c2cnn(-c3ccccc3)c2)n1 [Compound 204, N-[2-(morpholin-4-yl)ethyl]-2-(1-phenyl-1H-pyrazol-4-yl)-1,3-thiazole-4-carboxamide] | 10 to 30% |
| CN1CCC[C@H](NC(=O)c2csc(-c3cnn(-c4ccccc4)c3)n2)C1 [Compound 208, N-[(3S)-1-methylpiperidin-3-yl]-2-(1-phenyl-1H-pyrazol-4-yl)-1,3-thiazole-4-carboxamide] | 10 to 30% |
| CCN1CCC(NC(=O)c2csc(-c3cnn(-c4ccc(F)cc4)c3)n2)CC1 [Compound 213, N-(1-ethylpiperidin-4-yl)-2-[1-(4-fluorophenyl)-1H-pyrazol-4-yl]-1,3-thiazole-4-carboxamide] | 10 to 30% |
| CCN1CCC(NC(=O)c2ccc(-c3cnn(-c4ccccc4)c3)[nH]2)CC1 [Compound 214, N-(1-ethylpiperidin-4-yl)-5-(1-phenyl-1H-pyrazol-4-yl)-1H-pyrrole-2-carboxamide] | 10 to 30% |
| NS(=O)(=O)N1CCN(C(=O)c2ccc(-c3cnn(-c4ccccc4C(F)(F)F)c3)[nH]2)CC1 [Compound 216, 4-(5-{1-[2-(trifluoromethyl)phenyl]-1H-pyrazol-4-yl}-1H-pyrrole-2-carbonyl)piperazine-1-sulfonamide] | 10 to 30% |
| CCN1CCC(N(C)C(=O)c2csc(-c3cnn(-c4ccccc4C(F)(F)F)c3)n2)CC1 [Compound 217, N-(1-ethylpiperidin-4-yl)-N-methyl-2-{1-[2-(trifluoromethyl)phenyl]-1H-pyrazol-4-yl}-1,3-thiazole-4-carboxamide] | 10 to 30% |
| CCN1CCC(N(CC)C(=O)c2csc(-c3cnn(-c4ccccc4)c3)n2)CC1 [Compound 219, N-ethyl-N-(1-ethylpiperidin-4-yl)-2-(1-phenyl-1H-pyrazol-4-yl)-1,3-thiazole-4-carboxamide] | > 100% |
| CCN1CCC(N(C)C(=O)c2csc(-c3cnn(-c4ccccn4)c3)n2)CC1 [Compound 221, N-(1-ethylpiperidin-4-yl)-N-methyl-2-[1-(pyridin-2-yl)-1H-pyrazol-4-yl]-1,3-thiazole-4-carboxamide] | 10 to 30% |
| C[C@H]1CN(C(=O)c2csc(-c3cnn(-c4cccnc4)c3)n2)CCN1 [Compound 223, (3S)-3-methyl-1-{2-[1-(pyridin-3-yl)-1H-pyrazol-4-yl]-1,3-thiazole-4-carbonyl}piperazine] | 10 to 30% |
| CCN1CCC(N(C)C(=O)c2csc(-c3cnn(-c4cccnc4)c3)n2)CC1 [Compound 224, N-(1-ethylpiperidin-4-yl)-N-methyl-2-[1-(pyridin-3-yl)-1H-pyrazol-4-yl]-1,3-thiazole-4-carboxamide] | 50 to 100% |
| CCN1CCC(NC(=O)c2csc(-c3cnn(-c4cccnc4)c3)n2)CC1 [Compound 225, N-(1-ethylpiperidin-4-yl)-2-[1-(pyridin-3-yl)-1H-pyrazol-4-yl]-1,3-thiazole-4-carboxamide] | 10 to 30% |
| CCN1CCC(NC(=O)c2csc(-c3cnn(-c4ccncc4)c3)n2)CC1 [Compound 228, N-(1-ethylpiperidin-4-yl)-2-[1-(pyridin-4-yl)-1H-pyrazol-4-yl]-1,3-thiazole-4-carboxamide] | 10 to 30% |
| C[C@H]1CN(C(=O)c2csc(-c3cnn(-c4cccnn4)c3)n2)CCN1 [Compound 229, 3-(4-{4-[(3S)-3-methylpiperazine-1-carbonyl]-1,3-thiazol-2-yl}-1H-pyrazol-1-yl)pyridazine] | 30 to 50% |
| CCN1CCC(NC(=O)c2csc(-c3cnn(-c4cccnn4)c3)n2)CC1 [Compound 231, N-(1-ethylpiperidin-4-yl)-2-[1-(pyridazin-3-yl)-1H-pyrazol-4-yl]-1,3-thiazole-4-carboxamide] | 10 to 30% |
| C[C@H]1CN(C(=O)c2csc(-c3cnn(-c4cnccn4)c3)n2)CCN1 [Compound 232, 2-(4-{4-[(3S)-3-methylpiperazine-1-carbonyl]-1,3-thiazol-2-yl}-1H-pyrazol-1-yl)pyrazine] | 50 to 100% |
| CCN1CCC(N(C)C(=O)c2csc(-c3cnn(-c4cnccn4)c3)n2)CC1 [Compound 233, N-(1-ethylpiperidin-4-yl)-N-methyl-2-[1-(pyrazin-2-yl)-1H-pyrazol-4-yl]-1,3-thiazole-4-carboxamide] | 50 to 100% |
| CCN1CCC(NC(=O)c2csc(-c3cnn(-c4cnccn4)c3)n2)CC1 [Compound 234, N-(1-ethylpiperidin-4-yl)-2-[1-(pyrazin-2-yl)-1H-pyrazol-4-yl]-1,3-thiazole-4-carboxamide] | 30 to 50% |
| CC1(C)CN(C(=O)c2csc(-c3cnn(-c4ccccc4)c3)n2)CCN1 [Compound 235, 3,3-dimethyl-1-[2-(1-phenyl-1H-pyrazol-4-yl)-1,3-thiazole-4-carbonyl]piperazine] | 30 to 50% |
| CCN1CCN(C(=O)c2csc(-c3cnn(-c4ccccc4)c3)n2)CC1 [Compound 236, 1-ethyl-4-[2-(1-phenyl-1H-pyrazol-4-yl)-1,3-thiazole-4-carbonyl]piperazine] | 10 to 30% |
| CN(C(=O)c1csc(-c2cnn(-c3ccccc3)c2)n1)C1CCN(C(C)(C)C)CC1 [Compound 239, N-(1-tert-butylpiperidin-4-yl)-N-methyl-2-(1-phenyl-1H-pyrazol-4-yl)-1,3-thiazole-4-carboxamide] | 10 to 30% |
| CCN1C[C@H]2C[C@@H]1CC2NC(=O)c1csc(-c2cnn(-c3ccccc3)c2)n1 (stereo partly drawn) [Compound 244, N-[(1R,4R)-2-ethyl-2-azabicyclo[2.2.1]heptan-5-yl]-2-(1-phenyl-1H-pyrazol-4-yl)-1,3-thiazole-4-carboxamide] | 10 to 30% |
| CCN1C[C@@H]2C[C@H]1CC2N(C)C(=O)c1csc(-c2cnn(-c3ccccc3)c2)n1 (stereo partly drawn) [Compound 245, N-[(1S,4S)-2-ethyl-2-azabicyclo[2.2.1]heptan-5-yl]-N-methyl-2-(1-phenyl-1H-pyrazol-4-yl)-1,3-thiazole-4-carboxamide] | 10 to 30% |
| CCN1C[C@@H]2C[C@H]1CC2NC(=O)c1csc(-c2cnn(-c3ccccc3)c2)n1 (stereo partly drawn) [Compound 246, N-[(1S,4S)-2-ethyl-2-azabicyclo[2.2.1]heptan-5-yl]-2-(1-phenyl-1H-pyrazol-4-yl)-1,3-thiazole-4-carboxamide] | 10 to 30% |
| C[C@H]1CN(C(=O)c2csc(-c3cnn(-c4ncccn4)c3)n2)CCN1 [Compound 249, 2-(4-{4-[(3S)-3-methylpiperazine-1-carbonyl]-1,3-thiazol-2-yl}-1H-pyrazol-1-yl)pyrimidine] | 10 to 30% |
| CCN1CCC(N(C)C(=O)c2csc(-c3cnn(-c4ncccn4)c3)n2)CC1 [Compound 250, N-(1-ethylpiperidin-4-yl)-N-methyl-2-[1-(pyrimidin-2-yl)-1H-pyrazol-4-yl]-1,3-thiazole-4-carboxamide] | 10 to 30% |

Same assay, conditions: concentration of 10 μM, 24 hours

| SMILES | acidic vesicle formation relative to a DMSO-treated control |
| --- | --- |
| C[C@H]1CN(C(=O)c2csc(-c3cnn(-c4cccnc4)c3)n2)CCN1 [Compound 223, (3S)-3-methyl-1-{2-[1-(pyridin-3-yl)-1H-pyrazol-4-yl]-1,3-thiazole-4-carbonyl}piperazine] | only a slight increase |
| C[C@H]1CN(C(=O)c2csc(-c3cnn(-c4ccncc4)c3)n2)CCN1 [Compound 226, (3S)-3-methyl-1-{2-[1-(pyridin-4-yl)-1H-pyrazol-4-yl]-1,3-thiazole-4-carbonyl}piperazine] | only a slight increase |
| CCN1CCC(N(C)C(=O)c2csc(-c3cnn(-c4ccncc4)c3)n2)CC1 [Compound 227, N-(1-ethylpiperidin-4-yl)-N-methyl-2-[1-(pyridin-4-yl)-1H-pyrazol-4-yl]-1,3-thiazole-4-carboxamide] | only a slight increase |
| C[C@H]1CN(C(=O)c2csc(-c3cnn(-c4cnccn4)c3)n2)CCN1 [Compound 232, 2-(4-{4-[(3S)-3-methylpiperazine-1-carbonyl]-1,3-thiazol-2-yl}-1H-pyrazol-1-yl)pyrazine] | only a slight increase |
| C[C@H]1CC(N(C)C(=O)c2csc(-c3cnn(-c4ccccc4)c3)n2)CCN1 (stereo partly drawn) [Compound 241, N-methyl-N-[(2S)-2-methylpiperidin-4-yl]-2-(1-phenyl-1H-pyrazol-4-yl)-1,3-thiazole-4-carboxamide] | only a slight increase |
